The source of these data is publication PMC7576278, “IKKε and TBK1 in diffuse large B‐cell lymphoma: A possible mechanism of action of an IKKε/TBK1 inhibitor to repress NF‐κB and IL‐10 signalling” (Journal of Cellular and Molecular Medicine, 2020).

pIC50: −log10 of the molar value.

By pIC50 is commonly meant −log10 of the IC50, conventionally taken in molar units. Low values mean a large IC50, high ones a small IC50.

One test deals with T1, TBK1 (Homo sapiens, UniProt Q9UHD2).
T1 sequence (Q9UHD2 1-729): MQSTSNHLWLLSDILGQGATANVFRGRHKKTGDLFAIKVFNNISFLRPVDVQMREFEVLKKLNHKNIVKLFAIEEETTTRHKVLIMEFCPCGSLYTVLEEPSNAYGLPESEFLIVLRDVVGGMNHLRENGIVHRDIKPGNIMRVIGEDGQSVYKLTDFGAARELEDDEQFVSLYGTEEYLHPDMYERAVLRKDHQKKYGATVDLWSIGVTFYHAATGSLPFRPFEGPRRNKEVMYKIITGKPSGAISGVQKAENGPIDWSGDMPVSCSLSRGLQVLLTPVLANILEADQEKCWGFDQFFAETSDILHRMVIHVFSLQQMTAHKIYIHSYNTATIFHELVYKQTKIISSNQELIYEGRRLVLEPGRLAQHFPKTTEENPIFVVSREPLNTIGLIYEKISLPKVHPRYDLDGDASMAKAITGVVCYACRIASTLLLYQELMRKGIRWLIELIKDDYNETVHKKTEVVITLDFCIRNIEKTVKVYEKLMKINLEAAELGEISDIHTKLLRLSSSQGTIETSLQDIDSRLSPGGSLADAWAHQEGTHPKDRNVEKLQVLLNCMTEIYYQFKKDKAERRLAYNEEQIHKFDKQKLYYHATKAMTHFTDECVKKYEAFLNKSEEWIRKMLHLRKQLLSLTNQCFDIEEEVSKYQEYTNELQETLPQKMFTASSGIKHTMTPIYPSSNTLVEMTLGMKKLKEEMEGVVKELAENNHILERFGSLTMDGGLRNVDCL
Briefly: purified enzyme inhibition (pIC50; assay details not given). The test is classed as biochemical.

For the next test, the target named is T2, IKKε (Homo sapiens, UniProt Q14164).
T2 construct: gene IKBKE
T2 sequence (Q14164 1-716): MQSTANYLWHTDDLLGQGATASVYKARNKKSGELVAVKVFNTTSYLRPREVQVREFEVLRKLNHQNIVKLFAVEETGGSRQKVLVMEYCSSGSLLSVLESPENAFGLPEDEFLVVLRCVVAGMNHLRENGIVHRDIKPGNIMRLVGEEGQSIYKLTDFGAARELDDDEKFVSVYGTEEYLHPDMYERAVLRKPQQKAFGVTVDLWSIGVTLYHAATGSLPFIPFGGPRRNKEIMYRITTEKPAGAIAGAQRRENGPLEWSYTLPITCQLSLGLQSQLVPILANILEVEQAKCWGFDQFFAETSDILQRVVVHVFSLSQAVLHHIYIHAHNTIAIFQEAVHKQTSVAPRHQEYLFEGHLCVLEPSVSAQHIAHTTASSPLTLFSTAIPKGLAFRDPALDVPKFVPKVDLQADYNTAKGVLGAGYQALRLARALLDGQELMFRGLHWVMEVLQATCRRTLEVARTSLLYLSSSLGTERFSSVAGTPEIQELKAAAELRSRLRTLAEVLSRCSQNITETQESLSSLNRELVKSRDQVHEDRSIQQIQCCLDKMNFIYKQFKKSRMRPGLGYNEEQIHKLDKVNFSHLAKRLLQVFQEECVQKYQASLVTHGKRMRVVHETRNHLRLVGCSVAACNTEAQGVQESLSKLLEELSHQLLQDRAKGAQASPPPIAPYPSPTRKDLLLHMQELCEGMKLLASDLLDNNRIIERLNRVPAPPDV
Described as above. In kind it is biochemical.

Turning to `N#Cc1cc(-c2ccnc(Nc3ccc(NC(=O)CN4CCOCC4)nc3)n2)cnc1N1CC[C@H](F)C1` [DMX3433], the values for the pIC50 on TBK1 and against IKKε were 7.90 and 7.80, respectively.
